Laboratory results: patent publication US20020091262A1, “Substituted aryl or heteroarylamides having retinoid-like biological activity” (Allergan, priority 1995, published 2002)

How the values were obtained:
RARα = molecular target: T1, RARα (Homo sapiens, UniProt P10276); assay: Ligand binding assay, RARα; details: receptor expressed in Baculovirus; [3H] all-trans retinoic acid; Cheng-Prussof from IC50
T1 construct: made in house; used as extract protein
T1 sequence (P10276 1-462): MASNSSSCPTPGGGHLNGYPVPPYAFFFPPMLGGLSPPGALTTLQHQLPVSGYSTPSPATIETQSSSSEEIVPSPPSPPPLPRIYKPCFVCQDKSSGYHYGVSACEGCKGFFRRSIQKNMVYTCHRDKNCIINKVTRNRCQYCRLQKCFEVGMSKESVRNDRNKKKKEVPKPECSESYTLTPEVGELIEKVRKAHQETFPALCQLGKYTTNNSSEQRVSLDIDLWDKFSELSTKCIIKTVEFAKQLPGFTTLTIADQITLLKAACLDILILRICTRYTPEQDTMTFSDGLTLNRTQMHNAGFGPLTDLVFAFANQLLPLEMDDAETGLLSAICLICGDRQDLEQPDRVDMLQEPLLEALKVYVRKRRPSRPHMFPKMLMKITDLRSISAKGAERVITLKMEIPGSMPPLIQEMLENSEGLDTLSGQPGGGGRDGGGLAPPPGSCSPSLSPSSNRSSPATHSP
Protocol: (§1) A holoreceptor transactivation assay and a ligand binding assay which measure the ability of the compounds of the invention to bind to the several retinoid receptor subtypes, respectively, are described in published PCT Application No. WO W093/11755 (particularly on pages 30-33 and 37-41) published on Jun. 24, 1993, the specification of which is also incorporated herein by reference. A description of the ligand binding assay is also provided below.
(§2) All binding assays were performed in a similar fashion. All six receptor types were derived from the expressed receptor type (RAR α, β, Γ and RXR α, β, Γ) expressed in Baculovirus. Stock solutions of all compounds were prepared as 10 mM ethanol solutions and serial dilutions carried out into 1:1 DMSO; ethanol. Assay buffers consisted of the following for all six receptor assays: 8% glycerol, 120 mM KCl, 8 mM Tris, 5 mM CHAPS 4 mM DTT and 0.24 mM PMSF, pH-7.4@room temperature.
(§3) All receptor biding assays were performed in the same manner. The final assay volume was 250 μl and contained from 10-40 μg of extract protein depending on receptor being assayed along with 5 nM of [^3H] all-trans retinoic acid or 10 nM [^3H] 9-cis retinoic acid and varying concentrations of competing ligand at concentrations that ranged from 0-10^−5 M. The assays were formatted for a 96 well minitube system. Incubations were carried out at 4° C. until equilibrium was achieved. Non-specific binding was defined as that binding remaining in the presence of 1000 nM of the appropriate unlabeled retinoic acid isomer. At the end of the incubation period, 50 μl of 6.25% hydroxyapitite was added in the appropriate wash buffer. The wash buffer consisted of 100 mM KCl, 10 mM Tris and either 5 mM CHAPS (RXR α, β, Γ) or 0.5% Triton X-100 (RAR α, β, Γ). The mixture was vortexed and incubated for 10 minutes at 4° C., centrifuged and the supernatant removed. The hydroxyapitite was washed three more times with the appropriate wash buffer. The receptor-ligand complex was adsorbed by the hydroxyapitite. The amount of receptor-ligand complex was determined by liquid scintillation counting of hydroxyapitite pellet.
(§4) After correcting for non-specific binding, IC50 values were determined. […] The IC50 value was determined graphically from a loglogit plot of the data. The […] were determined by application of the Cheng-Prussof equation to the IC50 values, the labeled ligand concentration and the Kd of the labeled ligand.
(§5) The results of ligand binding assay are expressed in Kd numbers. (See Chena et al. Biochemical Pharmacology Vol. 22 pp 3099-3108, expressly incorporated herein by reference.)

RXRβ = molecular target: T2, RXRβ (UniProt P28704); assay: Ligand binding assay, RXRβ; details: receptor expressed in Baculovirus; Cheng-Prussof from IC50
T2 construct: All six receptor types were derived from the expressed receptor type (RAR α, β, Γ and RXR α, β, Γ) expressed in Baculovirus
T2 sequence (P28704 1-520): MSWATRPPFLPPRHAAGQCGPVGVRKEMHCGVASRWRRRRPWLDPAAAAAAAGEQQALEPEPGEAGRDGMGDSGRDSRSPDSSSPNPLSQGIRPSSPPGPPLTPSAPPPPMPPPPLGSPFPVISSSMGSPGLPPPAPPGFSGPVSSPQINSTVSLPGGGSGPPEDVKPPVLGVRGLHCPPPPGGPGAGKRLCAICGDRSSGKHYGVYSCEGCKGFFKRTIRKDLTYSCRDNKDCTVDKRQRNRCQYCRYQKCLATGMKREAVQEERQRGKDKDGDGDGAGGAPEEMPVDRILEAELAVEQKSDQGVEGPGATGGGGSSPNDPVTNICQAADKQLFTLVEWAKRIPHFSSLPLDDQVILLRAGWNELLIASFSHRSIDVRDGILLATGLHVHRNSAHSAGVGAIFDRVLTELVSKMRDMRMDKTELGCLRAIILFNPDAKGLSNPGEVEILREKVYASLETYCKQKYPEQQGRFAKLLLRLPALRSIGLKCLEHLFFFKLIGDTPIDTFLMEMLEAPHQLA
Protocol: (§6) A description of the ligand binding assay is also provided below.
as §2
as §3, with “At the end of the incubation period, 50 μl of 6.25% hydroxyapitite was added in the appropriate wash buffer.” left out
as §4
(§7) The results of ligand binding assay are expressed in Kd numbers.

RXRΓ = molecular target: T3, RXRΓ (UniProt P28705); assay: Ligand binding assay, RXRΓ; details: receptor expressed in Baculovirus; Cheng-Prussof from IC50
T3 construct: All six receptor types were derived from the expressed receptor type (RAR α, β, Γ and RXR α, β, Γ) expressed in Baculovirus
T3 sequence (P28705 1-463): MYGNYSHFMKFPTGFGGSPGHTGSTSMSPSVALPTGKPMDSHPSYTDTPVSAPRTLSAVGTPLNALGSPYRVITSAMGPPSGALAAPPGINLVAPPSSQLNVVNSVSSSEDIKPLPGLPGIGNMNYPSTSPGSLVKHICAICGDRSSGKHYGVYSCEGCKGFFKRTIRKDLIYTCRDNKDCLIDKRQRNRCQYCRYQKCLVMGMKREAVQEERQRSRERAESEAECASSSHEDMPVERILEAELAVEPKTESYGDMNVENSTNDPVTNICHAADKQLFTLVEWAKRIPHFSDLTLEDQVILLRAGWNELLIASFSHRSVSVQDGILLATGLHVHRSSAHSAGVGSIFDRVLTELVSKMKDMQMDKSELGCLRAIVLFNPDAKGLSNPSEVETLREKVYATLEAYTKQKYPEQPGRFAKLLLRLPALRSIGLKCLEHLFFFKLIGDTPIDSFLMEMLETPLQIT
Protocol: as §6, §2
as §3, with “At the end of the incubation period, 50 μl of 6.25% hydroxyapitite was added in the appropriate wash buffer.” left out
as §4, §7

RARβ = molecular target: T4, RARβ (Homo sapiens, UniProt P10826); assay: Ligand binding assay, RARβ; details: receptor expressed in Baculovirus; Cheng-Prussof from IC50
T4 construct: made in house; used as extract protein
T4 sequence (P10826 1-455): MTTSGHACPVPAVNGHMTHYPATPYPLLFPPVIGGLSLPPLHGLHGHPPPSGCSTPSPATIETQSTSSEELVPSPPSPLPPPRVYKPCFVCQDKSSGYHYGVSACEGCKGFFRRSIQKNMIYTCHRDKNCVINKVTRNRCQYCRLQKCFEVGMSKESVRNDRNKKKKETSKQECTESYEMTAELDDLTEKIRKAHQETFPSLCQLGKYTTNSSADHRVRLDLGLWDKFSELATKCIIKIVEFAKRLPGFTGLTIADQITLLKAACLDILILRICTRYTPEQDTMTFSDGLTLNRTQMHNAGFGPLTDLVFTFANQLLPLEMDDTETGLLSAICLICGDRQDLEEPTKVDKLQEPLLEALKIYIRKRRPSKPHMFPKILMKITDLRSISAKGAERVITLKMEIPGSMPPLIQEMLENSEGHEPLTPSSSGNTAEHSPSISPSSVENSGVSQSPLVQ
Protocol: as §1, §2
as §3, with “The wash buffer consisted of 100 mM KCl, 10 mM Tris and either 5 mM CHAPS (RXR α, β, Γ) or 0.5% Triton X-100 (RAR α, β, Γ). The mixture was vortexed and incubated for 10 minutes at 4° C., centrifuged and the supernatant removed. The hydroxyapitite was washed three more times with the appropriate wash buffer. The receptor-ligand complex was adsorbed by the hydroxyapitite.” left out
as §4, with “ligand. […]” for “ligand.”

RARΓ = molecular target: T5, RARΓ (Homo sapiens, UniProt P13631); assay: Ligand binding assay, RARΓ; details: receptor expressed in Baculovirus; Cheng-Prussof from IC50
T5 construct: made in house; used as extract protein
T5 sequence (P13631 1-454): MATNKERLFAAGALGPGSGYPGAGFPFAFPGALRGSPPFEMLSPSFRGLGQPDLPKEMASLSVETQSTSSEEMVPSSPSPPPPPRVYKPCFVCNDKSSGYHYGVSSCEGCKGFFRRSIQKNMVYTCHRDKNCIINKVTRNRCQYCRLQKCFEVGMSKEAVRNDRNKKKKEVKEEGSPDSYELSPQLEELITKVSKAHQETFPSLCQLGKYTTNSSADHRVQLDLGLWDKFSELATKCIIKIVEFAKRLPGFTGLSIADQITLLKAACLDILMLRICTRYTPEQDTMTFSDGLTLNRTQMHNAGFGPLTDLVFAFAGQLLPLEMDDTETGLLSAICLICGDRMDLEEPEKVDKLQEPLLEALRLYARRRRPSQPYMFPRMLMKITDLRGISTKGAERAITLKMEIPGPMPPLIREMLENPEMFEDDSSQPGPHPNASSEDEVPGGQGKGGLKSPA
Protocol: as §1, §2
as §3, with “The wash buffer consisted of 100 mM KCl, 10 mM Tris and either 5 mM CHAPS (RXR α, β, Γ) or 0.5% Triton X-100 (RAR α, β, Γ). The mixture was vortexed and incubated for 10 minutes at 4° C., centrifuged and the supernatant removed. The hydroxyapitite was washed three more times with the appropriate wash buffer. The receptor-ligand complex was adsorbed by the hydroxyapitite.” left out
as §4, with “ligand. […]” for “ligand.”

RXRα = molecular target: T6, RXRα (Homo sapiens, UniProt P19793); assay: Ligand binding assay, RXRα; details: receptor expressed in Baculovirus; Cheng-Prussof from IC50
T6 construct: made in house; used as extract protein
T6 sequence (P19793 1-462): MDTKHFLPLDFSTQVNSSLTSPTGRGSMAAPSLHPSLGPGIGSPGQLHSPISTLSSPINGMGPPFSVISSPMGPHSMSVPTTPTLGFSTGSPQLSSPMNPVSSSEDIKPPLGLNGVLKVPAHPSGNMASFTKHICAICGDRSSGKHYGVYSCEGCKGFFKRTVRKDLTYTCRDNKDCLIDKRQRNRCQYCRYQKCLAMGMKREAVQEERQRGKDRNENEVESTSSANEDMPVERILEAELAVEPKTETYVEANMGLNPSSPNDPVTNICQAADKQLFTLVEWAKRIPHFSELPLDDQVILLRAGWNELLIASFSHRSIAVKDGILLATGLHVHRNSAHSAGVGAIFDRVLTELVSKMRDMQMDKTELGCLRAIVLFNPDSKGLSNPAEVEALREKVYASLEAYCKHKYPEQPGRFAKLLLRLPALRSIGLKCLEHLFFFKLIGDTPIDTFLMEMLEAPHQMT
Protocol: as §1, §2, §3, §4, §5

Row | Compound | Kd (RARα) [µM] | Kd (RXRβ) [µM] | Kd (RXRΓ) [µM] | Kd (RARβ) [µM] | Kd (RARΓ) [µM] | Kd (RXRα) [µM]
1 | CC(C)(C)c1cc(C(=O)Nc2ccc(C(=O)O)cc2)cc(C(C)(C)C)n1 [Compound 4] | 0.019 | > 1 | > 1 | > 1 | > 1 | > 1
2 | CC(C)(C)c1cc(C(=O)Nc2ccc(C(=O)O)c(F)c2)c(O)c(C(C)(C)C)c1 [Compound 8] | 0.077 | > 1 | > 1 | > 1 | > 1 | > 1
3 | 2-Fluoro-4-[(3′,5′-di-t-butyl)phenylcarbamoyl]benzoic Acid [Compound 6] | – | > 1 | > 1 | – | – | > 1

The next lines start with the values.

Row | Kd (RARα) [µM] | Kd (RXRβ) [µM] | Kd (RXRΓ) [µM] | Kd (RARβ) [µM] | Kd (RARΓ) [µM] | Kd (RXRα) [µM] | Compound
4 | 0.094 | > 1 | > 1 | – | – | – | CC(C)(C)c1cc(C(=O)Nc2ccc(C(=O)O)c([N+](=O)[O-])c2)cc(C(C)(C)C)n1 [Compound 14]
5 | 0.087 | > 1 | > 1 | – | – | – | CC(C)(C)c1cc(C(=O)Nc2cc(F)c(C(=O)O)c(F)c2)cc(C(C)(C)C)c1 [Compound 12]
6 | 0.037 | > 1 | > 1 | > 1 | > 1 | > 1 | CC(C)(C)c1cc(C(=O)Nc2ccc(C(=O)O)cc2)cc(C(C)(C)C)c1 [Compound 15, reference compound]
7 | 0.062 | > 1 | > 1 | – | – | – | CC(C)(C)c1cc(C(=O)Nc2cc(F)c(C(=O)O)c(F)c2)cc(C(C)(C)C)n1 [Compound 10]
